In patent publication US5250542A, “Peripherally selective piperidine carboxylate opioid antagonists” (Eli Lilly and Company, priority 1992, dated 1993):
Where a name gives a salt, the structure may show the parent alone. Read-outs that look alike come from different tables or passages of the source.

Experiments:
mu receptor = molecular target: T1, mu receptor (Rattus norvegicus, UniProt P33535); assay: opioid receptor binding assay, [3H] NAL (tritiated naloxone), mu receptor; set-up: species or system rat (Male Sprague Dawley), brain minus cerebellum
T1 construct: rat whole brain minus cerebellum for mu was homogenized; from tissue; host or cells: brain of male Sprague Dawley rats, whole brain minus cerebellum, homogenate fraction
T1 sequence (P33535 whole entry): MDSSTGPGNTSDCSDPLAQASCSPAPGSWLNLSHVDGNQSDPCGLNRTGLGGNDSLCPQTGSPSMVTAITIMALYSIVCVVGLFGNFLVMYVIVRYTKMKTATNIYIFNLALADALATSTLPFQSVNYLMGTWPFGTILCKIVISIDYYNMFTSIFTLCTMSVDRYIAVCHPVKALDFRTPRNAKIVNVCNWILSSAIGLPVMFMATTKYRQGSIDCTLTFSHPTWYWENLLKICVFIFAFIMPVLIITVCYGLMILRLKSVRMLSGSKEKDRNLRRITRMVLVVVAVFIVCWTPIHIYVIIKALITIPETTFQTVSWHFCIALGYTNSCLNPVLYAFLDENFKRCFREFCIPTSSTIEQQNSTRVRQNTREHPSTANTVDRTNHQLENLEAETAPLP
Outline: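 Displacement of [3H]naloxone was measured on rat whole brain minus cerebellum membranes, preincubated 20 min and incubated 20 min at 37° C, with filtration separating bound ligand. Ki was derived from IC50 and ligand KD. Percent displacement was also recorded at 10 nM and 100 nM test compound.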

[1] = molecular target: T2, peripheral opioid receptors (Mus musculus, UniProt P42866); assay: precipitated diarrhea in morphine-maintained mice (peripheral opioid activity) and comparison with the writhing test; assay type: in vivo; set-up: ED50 (diarrhea): unit not given beside the values; settings: for Ratio (AD50 mouse writhing test / ED50 mouse diarrhea test): higher ratio = greater relative antagonism of peripheral opioid receptors; for ED50 (diarrhea) / ED50: morphine-maintained mice, antagonist subcutaneous or oral, 30 min observation; for ED50 (diarrhea): 30 min; for ED50: mouse, 0.5 h
T2 construct: Mice maintained (6 mice/cage) on 0.01M saccharin water with 1 g/1 morphine sulfate; from tissue; host or cells: living morphine-maintained mice (in vivo test; endogenous receptor)
T2 sequence (P42866 whole entry): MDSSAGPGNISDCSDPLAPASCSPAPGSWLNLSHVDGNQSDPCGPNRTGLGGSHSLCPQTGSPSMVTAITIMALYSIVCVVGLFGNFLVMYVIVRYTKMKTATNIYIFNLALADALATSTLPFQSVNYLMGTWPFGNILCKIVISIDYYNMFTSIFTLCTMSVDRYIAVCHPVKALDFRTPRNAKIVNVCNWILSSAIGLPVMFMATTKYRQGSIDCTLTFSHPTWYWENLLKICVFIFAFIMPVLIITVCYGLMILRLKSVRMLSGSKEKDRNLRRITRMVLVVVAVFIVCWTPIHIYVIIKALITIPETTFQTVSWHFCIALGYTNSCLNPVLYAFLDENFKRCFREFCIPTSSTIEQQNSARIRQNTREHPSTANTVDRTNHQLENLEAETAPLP
Outline: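 Morphine-dependent mice (1 g/l morphine sulfate in drinking water ≥10 days, withdrawn 45 min before dosing) received antagonist subcutaneously or orally, 5 mice/dose. Diarrhea (and jumping) were scored over 30 min and doses lowered to find the diarrhea threshold. Peripheral selectivity was taken as writhing AD50 divided by diarrhea ED50.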

opioid receptor = molecular target: T3, opioid receptor (Mus musculus, UniProt P42866); assay: mouse writhing analgesis test: block of morphine-induced analgesia; assay type: in vivo, CF-1 male mice; set-up: unit not given here; settings: dose of antagonist that reduced the inhibition of writhing produced by 1.25 mg/kg morphine sulfate to 50%, subcutaneous, 20 min before acetic acid
T3 construct: Five CF-1 male mice (Charles River, Portage, Mich.); from tissue; host or cells: living CF-1 male mice (in vivo test; endogenous receptor)
T3 sequence (P42866 whole entry): as above
Outline: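 Male CF-1 mice (~20 g, fasted overnight, n=5) dosed subcutaneously 20 min before i.p. 0.6% acetic acid; writhes counted for 10 min starting 5 min post-injection. Antagonism measured as blockade of morphine-induced inhibition of writhing, percent versus vehicle controls; ED50 defined as 50% writhing inhibition.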

[2] = 20 min, read-out: % displacement at 10 nM
[3] = 20 min, read-out: % displacement at 10 nM, 10 nM test compound, [3H] naloxone 0.5 nM
[4] = 20 min, read-out: % displacement at 100 nM, 100 nM test compound, [3H] naloxone 0.5 nM
[5] = 20 min, read-out: % displacement at 100 nM

Compound | % displacement at 100 nM (mu receptor) [%] | inhibition at 0.01 µM (mu receptor; [2]) [%] | inhibition at 0.01 µM (mu receptor; [3]) [%] | inhibition at 0.1 µM (mu receptor; [4]) [%] | Ratio (AD50 mouse writhing test / ED50 mouse diarrhea test) ([1]; listed as 98D*) | Ratio (AD50 mouse writhing test / ED50 mouse diarrhea test) ([1]; listed as 98D**) | ED50 (diarrhea) ([1]; listed as 98D**) | ED50 (diarrhea) ([1]; listed as 98D*) | AD50 (opioid receptor; listed as 98D**, 1.25 mg/kg) | AD50 (opioid receptor; listed as 98D*, 1.25 mg/kg) | inhibition at 0.1 µM (mu receptor; [5]) [%] | Ratio (AD50 mouse writhing test / ED50 mouse diarrhea test) [1] | ED50 [1] [mg/kg] | AD50 (opioid receptor) | Ki (mu receptor) [nM] | Ki (mu receptor; [3H] naloxone 0.5 nM, pH 7.4, 37° C., 20 min, read-out: Ki) [nM]
CC(C)COC(=O)CNC(=O)C(Cc1ccccc1)CN1CC[C@](C)(c2cccc(O)c2)[C@H](C)C1 (single isomer, unassigned) [Example 98D] | 96 | 80 | 57 | 92 | 4 | 255 | 0.06 | 0.76 | 15.3 | 2.9 | – | – | – | – | – | –
C[C@@H]1CN(CC(Cc2ccccc2)C(=O)NCC(=O)O)CC[C@]1(C)c1cccc(O)c1 (single isomer, unassigned) [Example 98E] | – | 69 | – | – | – | – | – | – | – | – | 87 | 62 | 0.1 | 6.2 | – | –
C[C@H]1CN(CC(Cc2ccccc2)C(=O)NCC(=O)O)CC[C@@]1(C)c1cccc(O)c1 (single isomer, unassigned; (+)) [Example 97E, monohydrate] | – | 80 | – | – | – | – | – | – | – | – | 90 | 127 | 0.07 | 8.9 | – | –
C[C@H]1CN(CC(CC2CCCCC2)C(=O)NCCC(=O)O)CC[C@@]1(C)c1cccc(O)c1 (some centres unmarked) [Example 35, 3-[[3-[4-(3-hydroxyphenyl)-3,4-dimethyl-1-piperidinyl]-2-(cyclohexylmethyl)-1-oxopropyl]-amino]propanoic acid hydrochloride] | – | – | 98 | 100 | – | – | – | – | – | – | – | 667 | 0.06 | 40 | 0.54 | –
CCOC(=O)CCNC(=O)C(CC1CCCCC1)CN1CC[C@@](C)(c2cccc(O)c2)[C@@H](C)C1 (some centres unmarked) [Example 36, 3-[[2-(cyclohexylmethyl)-3-[4-(3-hydroxyphenyl)-3,4-dimethyl-1-piperidinyl]-1-oxo-propyl]amino]propanoic acid ethyl ester monohydrochloride] | – | – | 79 | 86 | – | – | – | – | – | – | – | 12 | 0.32 | 3.8 | 0.47 | –
CCNC(=O)CCNC(=O)C(CC1CCCCC1)CN1CC[C@@](C)(c2cccc(O)c2)[C@@H](C)C1 (some centres unmarked) [Example 37, monohydrochloride] | – | – | 93 | – | – | – | – | – | – | – | 97 | 43 | 0.09 | 3.9 | 1.09 | –
C[C@H]1CN(CC(CC2CCCCC2)C(=O)NCCC(N)=O)CC[C@@]1(C)c1cccc(O)c1 (some centres unmarked) [Example 38, 3-[[1-oxo-2-cyclohexylmethyl)-3-[4-(3-hydroxyphenyl)-3,4-dimethyl-1-piperidinyl]propyl]-amino]propanamide hydrochloride] | – | – | 98 | 99 | – | – | – | – | – | – | – | > 667 | 0.06 | > 40 | 0.48 | –
CCOC(=O)CCCNC(=O)C(CC1CCCCC1)CN1CC[C@@](C)(c2cccc(O)c2)[C@@H](C)C1 (some centres unmarked) [Example 39, 4-[[3-[3,4-dimethyl-4-(3-hydroxyphenyl)-1-piperidinyl]-2-(cyclohexhymethyl)-1-oxopropyl]-amino]butanoic acid ethyl ester monohydrochloride] | – | – | 91 | – | – | – | – | – | – | – | 98 | 18 | 0.66 | 11.9 | 3.75 | –
C[C@H]1CN(CC(CC2CCCCC2)C(=O)NCCCC(N)=O)CC[C@@]1(C)c1cccc(O)c1 (some centres unmarked) [Example 40, 4-[[1-oxo-2-(cyclohexylmethyl)-3-[4-(3-hydroxyphenyl)-3,4-dimethyl-1-piperidinyl]propyl]-amino]butanamide hydrochloride] | – | – | 95 | 100 | – | – | – | – | – | – | – | 3.5 | 1.3 | 4.5 | 0.75 | –
CNC(=O)CCCNC(=O)C(CC1CCCCC1)CN1CC[C@@](C)(c2cccc(O)c2)[C@@H](C)C1 (some centres unmarked) [Example 41, N-[4-(methylamino)-4-oxobutyl]-3-[4-(3-hydroxyphenyl)-3,4-dimethyl-1-piperidinyl]-2-cyclohexylmethylpropanamide monohydrochloride] | – | – | 100 | 100 | – | – | – | – | – | – | – | 26 | 0.17 | 4.5 | 0.39 | –
CCNC(=O)CCCNC(=O)C(CC1CCCCC1)CN1CC[C@@](C)(c2cccc(O)c2)[C@@H](C)C1 (some centres unmarked) [Example 42, N-[4-(ethylamino)-4-oxobutyl]-3-[4-(3--hydroxyphenyl)-3,4-dimethyl-1-piperidinyl[-2-cyclohexyl-methylpropanamide monohydrate hydrochloride] | – | – | 100 | – | – | – | – | – | – | – | 97 | 8 | 0.26 | 2.1 | 0.57 | –
CCOC(=O)CNC(=O)C(Cc1ccccc1)CN1CC[C@@](C)(c2cccc(O)c2)[C@@H](C)C1 (some centres unmarked) [Example 43, 2-[3-[4-(3-hydroxyphenyl)-3,4-dimethyl-1-piperidinyl]-1-oxo-2-(phenylmethyl)propyl]-amino]acetic acid ethyl ester hydrochloride] | – | – | 98 | 99 | – | – | – | – | – | – | – | 146 | 0.013 | 1.9 | 0.64 | –
C[C@H]1CN(CC(Cc2ccccc2)C(=O)NCC(=O)O)CC[C@@]1(C)c1cccc(O)c1 (some centres unmarked) [Example 44, 2-[[3-[4-(3-hydroxyphenyl)-3,4-dimethyl-1-piperidinyl]-1-oxo-2-(phenylmethyl)propyl]-amino]acetic acid monohydrate] | – | 87 | – | – | – | – | – | – | – | – | 94 | > 266 | 0.15 | > 40 | – | 0.89
CCNC(=O)CNC(=O)C(Cc1ccccc1)CN1CC[C@@](C)(c2cccc(O)c2)[C@@H](C)C1 (some centres unmarked) [Example 45, N-ethyl-2-[[2-(phenylmethyl-)-1-oxo-3-[4-(3-hydroxyphenyl)-3,4-dimethyl-1-piperidinyl]propyl]-amino]ethanamide] | – | – | 93 | – | – | – | – | – | – | – | 98 | 11 | 0.24 | 2.6 | 1.28 | –
C[C@H]1CN(CC(Cc2ccccc2)C(=O)NCC(N)=O)CC[C@@]1(C)c1cccc(O)c1 (some centres unmarked) [Example 46, N-(2-amino-2-oxoethyl)-3-[3,4-dimethyl-4-(3-hydroxyphenyl)-1-piperidinyl]-2-phenylmethyl propanamide monohydrochloride monohydrate] | – | – | 99 | 95 | – | – | – | – | – | – | – | 571 | 0.07 | 40 | 0.31 | –
C[C@H]1CN(CC(Cc2ccccc2)C(=O)NCC(=O)N(C)C)CC[C@@]1(C)c1cccc(O)c1 (some centres unmarked) [Example 47, N,N-dimethyl-2-[[3-4-(3-hydroxyphenyl)-3,4-dimethyl-1-piperidinyl]-2-(phenylmethyl)-1-oxypropyl]amino]acetamide monohydrochloride monohydrate] | – | – | 89 | 95 | – | – | – | – | – | – | – | 267 | 0.15 | 40 | 2.11 | –
CC(C)NC(=O)CNC(=O)C(Cc1ccccc1)CN1CC[C@@](C)(c2cccc(O)c2)[C@@H](C)C1 (some centres unmarked) [Example 48, N-(1-methylethyl)-2-[[3-[4-(3-hydroxyphenyl)-3,4-dimethyl-1-piperidinyl]-2-(phenylmethyl)-1-oxopropyl]amino]acetamide hydrochloride monohydrate] | – | – | 96 | 100 | – | – | – | – | – | – | – | > 400 | 0.1 | > 40 | 1.82 | –
